Patent US4271163A, “Novel 3,4-diaza-bicyclo[4.1.0]hept-2-en-5-ones, their preparation, and therapeutic agents containing these compounds” (BASF Aktiengesellschaft, priority 1978, dated 1981)
≈ marks a conversion by molar mass, not a printed value.

Legend:
[1] = tested on: spontaneously hypertonic rats; assay: Anti-hypertensive effect on spontaneously hypertonic rats; assay type: in vivo, rat (male spontaneously hypertonic Okamoto); settings: for ED (20%): Rattus norvegicus, 2 h, dose which lowers the blood pressure by 20% compared to the control group; for ED (20%) / Anti-hypertensive effect, R.A.: oral administration; for Anti-hypertensive effect, R.A.: dihydralazine = 1.00
Experimental: 4. Anti-hypertensive effect on spontaneously hypertonic rats.
The substances are administered orally to groups of 4-8 male spontaneously hypertonic Okamoto rats weighing 270-340 g. Before, and 2 hours after, the administration, the systolic blood pressure is measured non-surgically by means of piezo-electric crystal sensors.
The ED 20% is determined as the dose which lowers the systolic pressure by 20%, taking into account the values found with untreated control animals.
(§1) The effective doses or effective concentrations were calculated from the linear relationships between the logarithm of the dose or concentration and the logarithm of the effect, by means of regression analysis.
(§2) Acetylsalicylic acid was used as the reference substance for the inhibition of thrombocyte aggregation and dihydralazine for the anti-hypertensive effect.

[2] = tested on: narcotized rats; assay: Anti-hypertensive effect on narcotized rats; assay type: in vivo, rat (male Sprague-Dawley); settings: rats under urethane narcosis, intraperitoneal; for ED (20%): Rattus norvegicus, ip, dose which lowers the blood pressure by 20%, read-out: Reduction in blood pressure, ED 20%; for Reduction in blood pressure, R.A. (relative activity): dihydralazine = 1.00
Experimental: 3. Anti-hypertensive effect on narcotized rats.
To test the anti-hypertensive effect, the substances are administered intraperitoneally to groups of 3-5 male Sprague-Dawley rats weighing 240-280 g, under urethane narcosis ([…] given intraperitoneally).
The measurement of the blood pressure in the carotid artery is carried out by means of Statham transducers. The ED 20% is determined as the dose which lowers the mean carotid blood pressure by 20%.
as §1, §2

[3] = tested on: human thrombocytes; assay: Inhibition of the collagen-induced aggregation of human thrombocytes in vitro; assay type: cell-based; settings: human thrombocytes in vitro; for EC50: 10 min, concentration which inhibits the collagen-induced aggregation by 50%, 10 minutes incubation, read-out: Inhibition of collagen-induced thrombocyte aggregation in vitro, EC 50%; for Inhibition of aggregation, R.A. (relative activity): acetylsalicylic acid = 1.00
Experimental: 1. Inhibition of the collagen-induced aggregation of human thrombocytes in vitro.
(§3) Thrombocyte-rich plasma is obtained by centrifuging venous citrate blood (300 g, 10 minutes duration at 4° C.). The photometric measurement of the thrombocyte aggregation is carried out with addition of MgCl2 (final concentration 10 millimoles/l) and of collagen Stago (final concentration 0.02 mg/ml) in a Born Mk 3 aggregometer. The maximum extinction change/sec is used as a measure of the aggregation.
The aggregation-inhibiting activity of the substances is tested after an incubation time of 10 minutes.
The EC 50% is taken to be the concentration causing 50% inhibition of aggregation.
as §1, §2

[4] = tested on: rat thrombocytes; assay: Inhibition of the collagen-induced aggregation of rat thrombocytes ex vivo; assay type: in vivo, rat (male Sprague-Dawley); settings: rats; for ED (33%): Rattus norvegicus, dose which inhibits the collagen-induced aggregation by 33%, read-out: Inhibition of thrombocyte aggregation, ED 33%; for ED (33%) / Inhibition of thrombocyte aggregation, R.A. (relative activity): oral administration; for Inhibition of thrombocyte aggregation, R.A. (relative activity): acetylsalicylic acid = 1.00; for Inhibition of thrombocyte aggregation after oral administration in vivo (in words): versus acetylsalicylic acid
Experimental: as §3
2. Inhibition of the collagen-induced aggregation of rat thrombocytes ex vivo.
The substances are administered orally to groups of 10-15 male Sprague-Dawley rat weighing 200-250 g. 1-4 hours after administration, blood is taken under ether narcosis and thrombocyte-rich plasma is obtained by centrifuging. The aggregation after addition of collagen is measured as indicated above. The ED 33% is determined as the dose which inhibits the collagen-induced thrombocyte aggregation by 33%.
as §1, §2

Row | EC50 [3] [µg/mL] | SMILES | ED (20%) [1] [mg/kg] | Anti-hypertensive effect in spontaneously hypertonic rats after oral administration (in words) [1] | Anti-hypertensive effect, R.A. [1] | ED (20%) [2] [mg/kg] | Reduction in blood pressure, R.A. (relative activity) [2] | Inhibition of aggregation, R.A. (relative activity) [3] | ED (33%) [4] [mg/kg] | Inhibition of thrombocyte aggregation, R.A. (relative activity) [4] | Inhibition of thrombocyte aggregation after oral administration in vivo (in words) [4]
1 | 0.99 (≈ 3.39 µM) | CC(Cl)C(=O)Nc1ccc(C2=NNC(=O)C3CC23)cc1 (centres unmarked) [Example 20, 2-[p-(2-chloropropionylamino)-phenyl]-3,4-diaza-bicyclo[4.1.0]hept-2-en-5-one] | 10 | demonstrable | 0.69 | 0.278 | 1.21 | 499 | 3.74 | 35.83 | far surpasses the effect of acetylsalicylic acid
2 | 0.14 (≈ 0.576 µM) | CC(=O)Nc1ccc(C2=NNC(=O)C3CC23)cc1 (centres unmarked) [Example 7, 2-(p-acetylaminophenyl)-3,4-diaza-bicyclo[4.1.0]hept-2-en-5-one] | 8.65 | demonstrable | 0.79 | 0.193 | 1.75 | 3530 | 30.7 | 4.36 | far surpasses the effect of acetylsalicylic acid
